Results published in US11691949B2, “Quinoline sulfonamide compounds and their use as antibacterial agents” (OTAGO INNOVATION LIMITED, priority 2017, dated 2023).
Converted amounts (≈) assume the structure as drawn. Like-named read-outs stand apart in the source and are kept apart here.

Assays:
Assay type in all cases: cell-based
S. uberis ATCC 19436 = test: MIC by broth microdilution, S. uberis; conditions: Streptococcus uberis, read-out: S. uberis ATCC 19436 MIC
Method in brief: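 The MIC against S. uberis ATCC 19436 was the lowest compound concentration showing no growth by OD600 after 24 h at 37° C. with 200 rpm shaking. Cultures grown overnight were adjusted to OD600 ~0.025 so wells held approximately 5×10^5 cfu/mL in THB. Two-fold dilution series were made at a final volume of 200 μl. Media and untreated controls were run in triplicate on each plate.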

S. aureus ATCC 6538 = test: MIC by broth microdilution, S. aureus; conditions: Staphylococcus aureus, read-out: S. aureus ATCC 6538 MIC
Method in brief: (§1)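 MBC measured as cell viability after compound challenge by Miles-Misra drop plating. MIC: broth microdilution at ~5×10^5 cfu/mL final (S. aureus: TSB, CAMHB; E. coli: LB, CAMHB; optional 50 μM zinc sulphate), 24 h at 37° C, 200 rpm, lowest concentration without growth by OD600; biological triplicate.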

E. coli ATCC 10596 = test: MIC by broth microdilution, E. coli; conditions: Escherichia coli, read-out: E. coli ATCC 10536 MIC
Method in brief: as §1

[1] = ATCC 10536 / ATCC 10596, No Zinc
[2] = ATCC 10536 / ATCC 10596, Zinc (50 μM)

SMILES | MIC (S. uberis ATCC 19436; ATCC19436, No Zinc) | MIC (S. uberis ATCC 19436; ATCC19436, Zinc (50 μM)) | MIC (S. aureus ATCC 6538; ATCC6538, No Zinc) | MIC (S. aureus ATCC 6538; ATCC6538, Zinc (50 μM)) | MIC (E. coli ATCC 10596; [1]) | MIC (E. coli ATCC 10596; [2])
CN(C)Cc1ccc2cccc(NS(=O)(=O)c3ccc(NC(=O)OC(C)(C)C)cc3)c2n1 [ZDR333, tert-Butyl (4-(N-(2-((dimethylamino)methyl)quinolin-8-yl)sulfamoyl)phenyl)carbamate] | 64 µg/mL (≈ 140 µM) | 0.125 µg/mL (≈ 0.274 µM) | 128 µg/mL (≈ 280 µM) | 128 µg/mL (≈ 280 µM) | > 256 µg/mL | > 256 µg/mL
CN(C)Cc1ccc2cccc(NS(=O)(=O)c3cccc4cnccc34)c2n1 [ZDR339, N-(2-((Dimethylamino)methyl)quinolin-8-yl)isoquinoline-5-sulfonamide] | 256 µg/mL (≈ 652 µM) | 2 µg/mL (≈ 5.1 µM) | > 256 µg/mL | > 256 µg/mL | > 256 µg/mL | > 256 µg/mL
CN(C)Cc1ccc2cccc(NS(=O)(=O)c3cccc4cccnc34)c2n1 [ZDR340, N-(2-((Dimethylamino)methyl)quinolin-8-yl)quinoline-8-sulfonamide] | 64 µg/mL (≈ 163 µM) | 0.25 µg/mL (≈ 0.637 µM) | > 256 µg/mL | 32 µg/mL (≈ 81.5 µM) | > 256 µg/mL | > 256 µg/mL
CCCCNCc1ccc2cccc(NS(=O)(=O)c3ccc(C(F)(F)F)cc3)c2n1 [ZDR401, N-(2-((Butylamino)methyl)quinolin-8-yl)-4-(trifluoromethyl)benzenesulfonamide] | 16 µg/mL (≈ 36.6 µM) | 0.125 µg/mL (≈ 0.286 µM) | 32 µg/mL (≈ 73.1 µM) | 128 µg/mL (≈ 293 µM) | 64 µg/mL (≈ 146 µM) | > 256 µg/mL
CCC(C)NCc1ccc2cccc(NS(=O)(=O)c3ccc(C(F)(F)F)cc3)c2n1 (stereo not drawn) [ZDR402, N-(2-((sec-Butylamino)methyl)quinolin-8-yl)-4-(trifluoromethyl)benzenesulfonamide] | 16 µg/mL (≈ 36.6 µM) | 0.125 µg/mL (≈ 0.286 µM) | 32 µg/mL (≈ 73.1 µM) | 128 µg/mL (≈ 293 µM) | 256 µg/mL (≈ 585 µM) | > 256 µg/mL
CC(C)CNCc1ccc2cccc(NS(=O)(=O)c3ccc(C(F)(F)F)cc3)c2n1 [ZDR403, N-(2-((Iso-Butylamino)methyl)quinolin-8-yl)-4-(trifluoromethyl)benzenesulfonamide] | 16 µg/mL (≈ 36.6 µM) | 0.125 µg/mL (≈ 0.286 µM) | 32 µg/mL (≈ 73.1 µM) | 128 µg/mL (≈ 293 µM) | 64 µg/mL (≈ 146 µM) | 256 µg/mL (≈ 585 µM)
O=S(=O)(Nc1cccc2ccc(CNC3CCCC3)nc12)c1ccc(C(F)(F)F)cc1 [ZDR404, N-(2-((Cyclopentylamino)methyl)quinolin-8-yl)-4-(trifluoromethyl)benzenesulfonamide] | 16 µg/mL (≈ 35.6 µM) | 0.125 µg/mL (≈ 0.278 µM) | 32 µg/mL (≈ 71.2 µM) | 256 µg/mL (≈ 570 µM) | 128 µg/mL (≈ 285 µM) | > 256 µg/mL
O=S(=O)(Nc1cccc2ccc(CNC3CCCCC3)nc12)c1ccc(C(F)(F)F)cc1 [ZDR405, N-(2-((Cyclohexylamino)methyl)quinolin-8-yl)-4-(trifluoromethyl)benzenesulfonamide] | 16 µg/mL (≈ 34.5 µM) | 0.125 µg/mL (≈ 0.27 µM) | 64 µg/mL (≈ 138 µM) | 128 µg/mL (≈ 276 µM) | 128 µg/mL (≈ 276 µM) | > 256 µg/mL
O=S(=O)(Nc1cccc2ccc(CNCC3CCCCC3)nc12)c1ccc(C(F)(F)F)cc1 [ZDR406, N-(2-(((Cyclohexylmethyl)amino)methyl)quinolin-8-yl)-4-(trifluoromethyl)benzenesulfonamide] | 16 µg/mL (≈ 33.5 µM) | 0.125 µg/mL (≈ 0.262 µM) | 32 µg/mL (≈ 67 µM) | 128 µg/mL (≈ 268 µM) | 64 µg/mL (≈ 134 µM) | 256 µg/mL (≈ 536 µM)
O=S(=O)(Nc1cccc2ccc(CN3CCCC3)nc12)c1ccc(C(F)(F)F)cc1 [ZDR407, N-(2-(Pyrrolidin-1-ylmethyl)quinolin-8-yl)-4-(trifluoromethyl)benzenesulfonamide] | 128 µg/mL (≈ 294 µM) | 0.125 µg/mL (≈ 0.287 µM) | 64 µg/mL (≈ 147 µM) | 256 µg/mL (≈ 588 µM) | 256 µg/mL (≈ 588 µM) | 256 µg/mL (≈ 588 µM)
O=S(=O)(Nc1cccc2ccc(CN3CCCCCC3)nc12)c1ccc(C(F)(F)F)cc1 [ZDR408, N-(2-(Azepan-1-ylmethyl)quinolin-8-yl)-4-(trifluoromethyl)benzenesulfonamide] | 32 µg/mL (≈ 69 µM) | 0.125 µg/mL (≈ 0.27 µM) | 64 µg/mL (≈ 138 µM) | 256 µg/mL (≈ 552 µM) | > 256 µg/mL | 256 µg/mL (≈ 552 µM)
CCCN(CCC)Cc1ccc2cccc(NS(=O)(=O)c3ccc(C(F)(F)F)cc3)c2n1 [ZDR409, N-(2-((Dipropylamino)methyl)quinolin-8-yl)-4-(trifluoromethyl)benzenesulfonamide] | 256 µg/mL (≈ 550 µM) | 0.125 µg/mL (≈ 0.269 µM) | 64 µg/mL (≈ 137 µM) | 256 µg/mL (≈ 550 µM) | > 256 µg/mL | > 256 µg/mL

Results, then the compound that gave them:

MIC (S. uberis ATCC 19436; ATCC19436, No Zinc) | MIC (S. uberis ATCC 19436; ATCC19436, Zinc (50 μM)) | MIC (S. aureus ATCC 6538; ATCC6538, No Zinc) | MIC (S. aureus ATCC 6538; ATCC6538, Zinc (50 μM)) | MIC (E. coli ATCC 10596; [1]) | MIC (E. coli ATCC 10596; [2]) | SMILES
128 µg/mL (≈ 335 µM) | 0.125 µg/mL (≈ 0.327 µM) | 32 µg/mL (≈ 83.8 µM) | 128 µg/mL (≈ 335 µM) | 256 µg/mL (≈ 670 µM) | > 256 µg/mL | CN(C)Cc1ccc2cccc(NS(=O)(=O)c3ccc(Cl)s3)c2n1 [ZDR326, 5-Chloro-N-(2-((dimethylamino)methyl)quinolin-8-yl)thiophene-2-sulfonamide]
256 µg/mL (≈ 642 µM) | 8 µg/mL (≈ 20.1 µM) | > 256 µg/mL | > 256 µg/mL | > 256 µg/mL | > 256 µg/mL | CC(=O)Nc1cccc(S(=O)(=O)Nc2cccc3ccc(CN(C)C)nc23)c1 [ZDR327, N-(3-(N-(2-((Dimethylamino)methyl)quinolin-8-yl)sulfamoyl)phenyl)acetamide]
> 256 µg/mL | 1 µg/mL (≈ 2.92 µM) | > 256 µg/mL | > 256 µg/mL | > 256 µg/mL | > 256 µg/mL | CN(C)Cc1ccc2cccc(NS(=O)(=O)c3cccnc3)c2n1 [ZDR328, N-(2-((Dimethylamino)methyl)quinolin-8-yl)pyridine-3-sulfonamide]
128 µg/mL (≈ 290 µM) | 0.125 µg/mL (≈ 0.283 µM) | 32 µg/mL (≈ 72.5 µM) | 32 µg/mL (≈ 72.5 µM) | > 256 µg/mL | > 256 µg/mL | CN(C)Cc1ccc2cccc(NS(=O)(=O)c3ccc(SC(F)(F)F)cc3)c2n1 [ZDR330, N-(2-((Dimethylamino)methyl)quinolin-8-yl)-4-((trifluoromethyl)thio)benzenesulfonamide]
> 256 µg/mL | 16 µg/mL (≈ 41.6 µM) | > 256 µg/mL | > 256 µg/mL | > 256 µg/mL | > 256 µg/mL | CN(C)Cc1ccc2cccc(NS(=O)(=O)c3cccc(C(N)=O)c3)c2n1 [ZDR331, 3-(N-(2-((Dimethylamino)methyl)quinolin-8-yl)sulfamoyl)benzamide]
256 µg/mL (≈ 618 µM) | 2 µg/mL (≈ 4.83 µM) | > 256 µg/mL | > 256 µg/mL | > 256 µg/mL | > 256 µg/mL | COC(=O)Nc1ccc(S(=O)(=O)Nc2cccc3ccc(CN(C)C)nc23)cc1 [ZDR332, Methyl (4-(N-(2-((dimethylamino)methyl)quinolin-8-yl)sulfamoyl)phenyl)carbamate]
64 µg/mL (≈ 156 µM) | 0.0625 µg/mL (≈ 0.152 µM) | 64 µg/mL (≈ 156 µM) | 128 µg/mL (≈ 312 µM) | > 256 µg/mL | > 256 µg/mL | CN(C)Cc1ccc2cccc(NS(=O)(=O)c3cccc(Cl)c3Cl)c2n1 [ZDR336, 2,3-Dichloro-N-(2-((dimethylamino)methyl)quinolin-8-yl)benzenesulfonamide]
256 µg/mL (≈ 647 µM) | 0.0625 µg/mL (≈ 0.158 µM) | > 256 µg/mL | > 256 µg/mL | > 256 µg/mL | > 256 µg/mL | CN(C)Cc1ccc2cccc(NS(=O)(=O)c3cc(F)c(F)cc3F)c2n1 [ZDR337, N-(2-((Dimethylamino)methyl)quinolin-8-yl)-2,4,5-trifluorobenzenesulfonamide]
128 µg/mL (≈ 339 µM) | 0.0625 µg/mL (≈ 0.166 µM) | > 256 µg/mL | > 256 µg/mL | > 256 µg/mL | > 256 µg/mL | CN(C)Cc1ccc2cccc(NS(=O)(=O)c3ccc(F)c(F)c3)c2n1 [ZDR338, N-(2-((Dimethylamino)methyl)quinolin-8-yl)-3,4-difluorobenzenesulfonamide]
